What is called Emax is the maximal effect, on the per cent scale that the assay sets.

This note sets out measurements from patent US7786141B2 (Vertex Pharmaceuticals Incorporated, priority 2004, dated 2010).

For one experiment, the target named is T1, M1 muscarinic receptor (Homo sapiens, UniProt P11229).
T1 construct: expressed in transfected cells; host or cells: CHO (M1-CHO)
T1 sequence (P11229 1-460): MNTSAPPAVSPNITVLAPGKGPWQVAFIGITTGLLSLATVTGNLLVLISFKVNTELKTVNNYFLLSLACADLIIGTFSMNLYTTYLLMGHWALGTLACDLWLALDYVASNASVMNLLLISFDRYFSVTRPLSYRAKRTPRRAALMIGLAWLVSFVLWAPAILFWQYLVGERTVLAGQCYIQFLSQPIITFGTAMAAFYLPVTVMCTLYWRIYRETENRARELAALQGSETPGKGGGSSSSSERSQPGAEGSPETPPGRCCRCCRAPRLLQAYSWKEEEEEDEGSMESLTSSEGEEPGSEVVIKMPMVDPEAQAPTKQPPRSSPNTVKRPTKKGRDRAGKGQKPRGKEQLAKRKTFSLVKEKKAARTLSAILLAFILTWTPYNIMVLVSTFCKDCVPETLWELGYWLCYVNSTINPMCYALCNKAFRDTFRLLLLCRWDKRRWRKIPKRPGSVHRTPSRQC
Briefly: Functional mobilization of intracellular calcium (FLIPR) in M1-CHO cells. In kind it is cell-based. Conditions: Table 4; for Emax: 100% efficacy is the maximum response obtained with the Carbachol control; for M1 Activity: M1 receptor, calcium mobilization (FLIPR). The method in brief:
(§1)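 Steps: seed M1- or M4-CHO cells 18-24 hrs ahead; load calcium dye with 1 mM probenecid; add test compound (0.5% DMSO final), either alone for agonism or 15 min before EC80 carbachol for inhibition; record FLIPR fluorescence for 60 sec.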
Background: Calcium assays in cells follow changes in intracellular calcium, usually with a dye or a luminescent sensor.

In the next experiment the target is T2, M4 muscarinic receptor (Homo sapiens, UniProt P08173).
T2 construct: expressed in transfected cells; host or cells: CHO (M4-CHO)
T2 sequence (P08173 1-479): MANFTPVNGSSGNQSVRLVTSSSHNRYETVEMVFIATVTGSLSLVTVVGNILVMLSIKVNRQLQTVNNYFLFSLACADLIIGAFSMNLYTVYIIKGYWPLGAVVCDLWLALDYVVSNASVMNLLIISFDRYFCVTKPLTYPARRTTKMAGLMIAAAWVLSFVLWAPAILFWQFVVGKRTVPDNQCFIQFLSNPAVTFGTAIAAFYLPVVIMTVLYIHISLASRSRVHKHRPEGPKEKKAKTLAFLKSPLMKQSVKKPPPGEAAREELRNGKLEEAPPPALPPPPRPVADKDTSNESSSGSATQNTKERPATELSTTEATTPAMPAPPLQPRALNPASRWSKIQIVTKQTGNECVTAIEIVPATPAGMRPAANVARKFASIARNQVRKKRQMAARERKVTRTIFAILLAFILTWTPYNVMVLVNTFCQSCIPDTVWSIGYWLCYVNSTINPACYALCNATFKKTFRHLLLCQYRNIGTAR
Briefly: Functional mobilization of intracellular calcium (FLIPR) in M4-CHO cells. In kind it is cell-based. Conditions: Table 4; for Emax: 100% efficacy is the maximum response obtained with the Carbachol control; for M4 Activity: M4 receptor, calcium mobilization (FLIPR). The method in brief: as §1

Consider `CCOC(=O)N1CC[C@@H](CN2CCC3(CC2)CN(C(=O)N(C)C)c2ccc(F)cc23)C1` [compound 974], for which, on M1 muscarinic receptor, the Emax lay in the range of 25 to 100% and the “M1 Activity” value is “xxx (activity was measured to be less than 2.0 μM)”. Moreover, at M4 muscarinic receptor, the Emax lay within 25 to 100% and the “M4 Activity” value is listed as “xxx (activity was measured to be less than 2.0 μM)”.

Consider `CC(=O)N1CC2(CCN(C3CCN(c4cncc(C5=CCCC5)n4)CC3)CC2)c2ccccc21` [compound 975], for which, at M1 muscarinic receptor, the Emax is less than 25% and the “M1 Activity” value is “x (activity was measured to be greater than 5.0 μM)”. For the same molecule, at M4 muscarinic receptor, the Emax is less than 25% and the “M4 Activity” value is reported as “x (activity was measured to be greater than 5.0 μM)”.

With `CC(=O)N1CC2(CCN(C3CCN(c4nccs4)CC3)CC2)c2cc(F)ccc21` [compound 976], at M1 muscarinic receptor, the Emax is 25 to 100% and the “M1 Activity” value is recorded as “xxx (activity was measured to be less than 2.0 μM)”. Moreover, at M4 muscarinic receptor, the maximal effect (Emax) lay within 25 to 100% and the “M4 Activity” value is recorded as “xxx (activity was measured to be less than 2.0 μM)”.

On to `CC(=O)NC1CC2(CCN(C3CCN(C(=O)c4cccc(C(F)(F)F)c4)CC3)CC2)c2ccccc21` (stereo not drawn) [compound 978], for which, at M1 muscarinic receptor, the Emax was less than 25% and the “M1 Activity” value was “x (activity was measured to be greater than 5.0 μM)”. For the same molecule, at M4 muscarinic receptor, the Emax is less than 25% and the “M4 Activity” value is on record as “x (activity was measured to be greater than 5.0 μM)”.

In the case of `O=C(N[C@H]1CC2(CCN(C3CC4CC[C@@H]3C4)CC2)c2ccccc21)N1CCOCC1` (stereo partly drawn) [compound 979], on M1 muscarinic receptor, the Emax fell in the range of 25 to 100% and the “M1 Activity” value is on record as “x (activity was measured to be greater than 5.0 μM)”. For the same molecule, at M4 muscarinic receptor, the Emax is 25 to 100% and the “M4 Activity” value was “xxx (activity was measured to be less than 2.0 μM)”.

As for `CCOC(=O)N1C2CCC1CC(N1CCC3(CC(=O)c4cc(F)ccc43)C1)C2` (stereo not drawn) [compound 980], at M1 muscarinic receptor, the Emax is more than 100% and the “M1 Activity” value is recorded as “xxx (activity was measured to be less than 2.0 μM)”. In addition, at M4 muscarinic receptor, the Emax was in the range of 25 to 100% and the “M4 Activity” value is given as “xxx (activity was measured to be less than 2.0 μM)”.

Consider `CCCC#CCOC(=O)N1CC[C@H](CN2CCC3(CC2)CN(C(=O)N(C)C)c2ccc(F)cc23)C1` [compound 981], for which, on M1 muscarinic receptor, the Emax fell in the range of 25 to 100% and the “M1 Activity” value was “xxx (activity was measured to be less than 2.0 μM)”. For the same molecule, on M4 muscarinic receptor, the Emax was 25 to 100% and the “M4 Activity” value was “xxx (activity was measured to be less than 2.0 μM)”.

As to `Cc1ccc2c(c1)C1(CCN(C3CC4CCC3C4)CC1)CN2C(=O)c1snnc1C` (stereo not drawn) [compound 982], on M1 muscarinic receptor, the Emax is less than 25% and the “M1 Activity” value is “x (activity was measured to be greater than 5.0 μM)”. For the same molecule, at M4 muscarinic receptor, the maximum response (Emax) was less than 25% and the “M4 Activity” value was “x (activity was measured to be greater than 5.0 μM)”.

`O=C1CC2(CCN(C3CCCCCC3)CC2)c2cc(Cl)ccc21` [compound 983]: on M1 muscarinic receptor, the Emax fell in the range of 25 to 100% and the “M1 Activity” value is recorded as “xxx (activity was measured to be less than 2.0 μM)”. At M4 muscarinic receptor, the Emax lay within 25 to 100% and the “M4 Activity” value is “xxx (activity was measured to be less than 2.0 μM)”.

As for `CCCN1CC2(CCN(C[C@H]3C[C@H]4C=CC3C4)CC2)c2cc(F)ccc21` [compound 984], on M1 muscarinic receptor, the Emax was 25 to 100%; the “M1 Activity” value was “xx (activity was measured to be between 2.0 μM and 5.0 μM)”. Moreover, at M4 muscarinic receptor, the Emax fell in the range of 25 to 100% and the “M4 Activity” value is “xxx (activity was measured to be less than 2.0 μM)”.

For the molecule `CC(=O)NC1CC2(CCN(CC3CC4C=CC3C4)CC2)c2ccc(C)cc21` (stereo not drawn) [compound 985], on M1 muscarinic receptor, the Emax fell in the range of 25 to 100% and the “M1 Activity” value is listed as “x (activity was measured to be greater than 5.0 μM)”. In addition, on M4 muscarinic receptor, the maximal response (Emax) fell in the range of 25 to 100%; the “M4 Activity” value was “xx (activity was measured to be between 2.0 μM and 5.0 μM)”.

For `CCOC(=O)N1CCCC(N2CCCC3(CC2)CN(C(C)=O)c2ccc(F)cc23)CC1` (stereo not drawn) [compound 986], at M1 muscarinic receptor, the Emax fell in the range of 25 to 100% and the “M1 Activity” value is given as “xxx (activity was measured to be less than 2.0 μM)”. At M4 muscarinic receptor, the Emax was 25 to 100% and the “M4 Activity” value was “xxx (activity was measured to be less than 2.0 μM)”.

`CC(CF)OC(=O)N1CCC(N2CCC3(CC2)CN(C(=O)N(C)C)c2ccc(F)cc23)CC1` (stereo not drawn) [compound 987]: on M1 muscarinic receptor, the Emax was 25 to 100% and the “M1 Activity” value is “xxx (activity was measured to be less than 2.0 μM)”. On M4 muscarinic receptor, the Emax lay within 25 to 100% and the “M4 Activity” value is “xxx (activity was measured to be less than 2.0 μM)”.

In the case of `CN(C)C(=O)N1CC2(CCN(C3CCN(C(=O)c4ccnnc4)CC3)CC2)c2cc(F)ccc21` [compound 988], on M1 muscarinic receptor, the Emax was 25 to 100% and the “M1 Activity” value is given as “xxx (activity was measured to be less than 2.0 μM)”. In addition, on M4 muscarinic receptor, the Emax was 25 to 100% and the “M4 Activity” value is “xxx (activity was measured to be less than 2.0 μM)”.

On to `C#CCCOC(=O)N1CCC(N2CCC3(CC2)CN(C(C)=O)c2ccccc23)CC1` [compound 989], for which, on M1 muscarinic receptor, the Emax lay in the range of 25 to 100% and the “M1 Activity” value was “xxx (activity was measured to be less than 2.0 μM)”. At M4 muscarinic receptor, the Emax was less than 25% and the “M4 Activity” value is listed as “x (activity was measured to be greater than 5.0 μM)”.

For `COc1ccc(N2CCC(N3CCC4(CC3)CN(C(=O)N(C)C)c3ccc(F)cc34)CC2)cc1` [compound 990], at M1 muscarinic receptor, the Emax lay within 25 to 100%; the “M1 Activity” value is “xx (activity was measured to be between 2.0 μM and 5.0 μM)”. Also, on M4 muscarinic receptor, the Emax lay in the range of 25 to 100% and the “M4 Activity” value was “x (activity was measured to be greater than 5.0 μM)”.

`CCOC(=O)N1CCC(N2CCC3(CC2)CN(c2ccccc2F)c2ccc(F)cc23)CC1` [compound 991]: on M1 muscarinic receptor, the Emax lay in the range of 25 to 100% and the “M1 Activity” value was “xxx (activity was measured to be less than 2.0 μM)”. For the same molecule, at M4 muscarinic receptor, the Emax was in the range of 25 to 100% and the “M4 Activity” value was “xxx (activity was measured to be less than 2.0 μM)”.

As to `CCOC(=O)N1CCC(N2CCC3(CC2)CN(C(C)=O)c2c(-c4ccc(F)cc4)cccc23)CC1` [compound 992], on M1 muscarinic receptor, the Emax lay in the range of 25 to 100% and the “M1 Activity” value is given as “x (activity was measured to be greater than 5.0 μM)”. Further, at M4 muscarinic receptor, the Emax was 25 to 100% and the “M4 Activity” value is “x (activity was measured to be greater than 5.0 μM)”.

On to `CC(=O)N[C@H]1CCC2(CCN(CC3CCCC3)CC2)c2ccccc21` [compound 993], for which, on M1 muscarinic receptor, the Emax was in the range of 25 to 100% and the “M1 Activity” value is recorded as “xxx (activity was measured to be less than 2.0 μM)”. For the same molecule, on M4 muscarinic receptor, the Emax fell in the range of 25 to 100% and the “M4 Activity” value is listed as “xxx (activity was measured to be less than 2.0 μM)”.

`CCOC(=O)N1CCC(CN2CCC3(CC2)CN(C(C)=O)c2ccc(C(F)(F)F)cc23)CC1` [compound 994]: at M1 muscarinic receptor, the Emax is 25 to 100% and the “M1 Activity” value is “xxx (activity was measured to be less than 2.0 μM)”. Besides, on M4 muscarinic receptor, the Emax lay in the range of 25 to 100% and the “M4 Activity” value is given as “xxx (activity was measured to be less than 2.0 μM)”.

With `CCOC(=O)N1CCC(N2CCC3(CC2)CN(C(C)=O)c2c(Br)cccc23)CC1` [compound 995], on M1 muscarinic receptor, the Emax lay in the range of 25 to 100% and the “M1 Activity” value is reported as “x (activity was measured to be greater than 5.0 μM)”. For the same molecule, at M4 muscarinic receptor, the Emax was 25 to 100%; the “M4 Activity” value was “xx (activity was measured to be between 2.0 μM and 5.0 μM)”.

Regarding `CC(=O)N1CC2(CCN(C[C@@H]3CCN(C(=O)OC(C)C)C3)CC2)c2ccccc21` [compound 996], at M1 muscarinic receptor, the Emax was less than 25% and the “M1 Activity” value is listed as “x (activity was measured to be greater than 5.0 μM)”. On M4 muscarinic receptor, the Emax was less than 25% and the “M4 Activity” value is given as “x (activity was measured to be greater than 5.0 μM)”.

As to `CN(C)C(=O)NC1CCC2(CCN(CC3CC4C=CC3C4)CC2)c2ccccc21` (stereo not drawn) [compound 998], on M1 muscarinic receptor, the Emax was less than 25% and the “M1 Activity” value was “x (activity was measured to be greater than 5.0 μM)”. Moreover, on M4 muscarinic receptor, the Emax was 25 to 100% and the “M4 Activity” value is given as “xxx (activity was measured to be less than 2.0 μM)”.

As to `CC(=O)NC1CCC2(CCN(CCC3CCN(C(=O)N(C)C)CC3)CC2)c2ccccc21` (stereo not drawn) [compound 999], on M1 muscarinic receptor, the Emax lay within 25 to 100% and the “M1 Activity” value is “xxx (activity was measured to be less than 2.0 μM)”. Moreover, on M4 muscarinic receptor, the Emax is less than 25% and the “M4 Activity” value is on record as “x (activity was measured to be greater than 5.0 μM)”.
